# What was measured:
# Experiment in all cases: relative viability (nuclei count vs DMSO), 5 days (fraction); higher = more cells survive
# IMD-0354 + Vorinostat = compound: O=C(Nc1cc(C(F)(F)F)cc(C(F)(F)F)c1)c1cc(Cl)ccc1O [IMD-0354] + O=C(CCCCCCC(=O)Nc1ccccc1)NO [Vorinostat] (partner 1 µM)
# In short: (§1)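 Lung cancer cell lines were seeded in 1536-well plates and dosed by pin tool the next day, with either a single drug or a fixed anchor-drug dose combined with five library-drug doses (not always all listed) spaced in √10 steps. Five days later, one step fixed the cells and stained their nuclei (final 0.05% Triton X-100, 1% formaldehyde, 1 ug/ml Hoechst), and nuclei were counted on 4× images. Relative viability is the nuclei count in treated wells divided by the count in vehicle wells, and each value is the median of duplicate plates.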
# IMD-0354 + Pictilisib = compound: O=C(Nc1cc(C(F)(F)F)cc(C(F)(F)F)c1)c1cc(Cl)ccc1O [IMD-0354] + CS(=O)(=O)N1CCN(Cc2cc3nc(-c4cccc5[nH]ncc45)nc(N4CCOCC4)c3s2)CC1 [Pictilisib] (partner 1 µM)
# In short: as §1
# CX-5461 + Phenformin = compound: Cc1cnc(CNC(=O)c2c(=O)c3ccc(N4CCCN(C)CC4)nc3n3c2sc2ccccc23)cn1 [CX-5461] + N=C(N)NC(=N)NCCc1ccccc1 [Phenformin] (partner 250 µM)
# In short: as §1
# IMD-0354 + Trametinib = compound: O=C(Nc1cc(C(F)(F)F)cc(C(F)(F)F)c1)c1cc(Cl)ccc1O [IMD-0354] + CC(=O)Nc1cccc(-n2c(=O)n(C3CC3)c(=O)c3c(Nc4ccc(I)cc4F)n(C)c(=O)c(C)c32)c1 [Trametinib] (partner 0.02 µM)
# In short: as §1
Cell Line,relative viability (IMD-0354 + Vorinostat; first compound 0.04 µM),relative viability (IMD-0354 + Vorinostat; first compound 0.1265 µM),relative viability (IMD-0354 + Vorinostat; first compound 0.4 µM),relative viability (IMD-0354 + Vorinostat; first compound 1.265 µM),relative viability (IMD-0354 + Vorinostat; first compound 4 µM),relative viability (IMD-0354 + Pictilisib; first compound 0.04 µM),relative viability (IMD-0354 + Pictilisib; first compound 0.1265 µM),relative viability (IMD-0354 + Pictilisib; first compound 0.4 µM),relative viability (IMD-0354 + Pictilisib; first compound 1.265 µM),relative viability (IMD-0354 + Pictilisib; first compound 4 µM),relative viability (CX-5461 + Phenformin; first compound 0.01 µM),relative viability (CX-5461 + Phenformin; first compound 0.03162 µM),relative viability (CX-5461 + Phenformin; first compound 0.1 µM),relative viability (CX-5461 + Phenformin; first compound 0.3162 µM),relative viability (CX-5461 + Phenformin; first compound 1 µM),relative viability (IMD-0354 + Trametinib; first compound 0.04 µM),relative viability (IMD-0354 + Trametinib; first compound 0.1265 µM),relative viability (IMD-0354 + Trametinib; first compound 0.4 µM),relative viability (IMD-0354 + Trametinib; first compound 1.265 µM),relative viability (IMD-0354 + Trametinib; first compound 4 µM)
NCI-H322M,0.901,0.891,0.48,0.42,0.537,0.575,0.519,0.485,0.557,0.446,0.821,0.945,0.818,0.473,0.521,0.567,0.622,0.483,0.388,0.426
NCI-H358,0.768,0.753,0.323,0.135,0.175,0.319,0.31,0.263,0.241,0.22,0.349,0.347,0.316,0.236,0.148,0.116,0.128,0.14,0.134,0.102
NCI-H441,0.971,0.82,0.416,0.246,0.236,0.543,0.521,0.316,0.266,0.183,0.758,1.05,0.779,0.86,0.305,0.528,0.543,0.359,0.164,0.191
NCI-H460,0.552,1.09,0.445,0.0405,0.0422,0.438,0.48,0.184,0.0352,0.0702,0.545,0.483,,0.483,0.0194,0.196,0.173,0.0878,0.0353,0.0199
NCI-H520,0.815,0.709,0.51,0.192,0.248,0.372,0.287,0.195,0.17,0.117,0.577,0.503,0.717,0.303,0.36,0.687,0.725,0.522,0.143,0.149
NCI-H596,0.631,0.694,0.413,0.671,0.461,0.383,0.381,0.375,0.372,0.34,0.754,0.869,0.879,0.723,0.637,0.843,0.649,0.639,0.659,0.512
NCI-H647,0.76,0.603,0.3,0.128,0.0744,0.626,0.524,0.184,0.232,0.0513,0.518,0.575,0.401,0.364,0.24,0.432,0.616,0.175,0.107,0.0901
NCI-H650,0.385,0.445,0.349,0.366,0.133,1.09,0.89,0.597,0.415,0.239,0.486,0.441,0.429,0.487,0.386,0.987,1.07,1.05,0.681,0.232
NCI-H661,0.835,0.714,0.455,0.248,0.2,0.416,0.418,0.34,0.264,0.252,0.285,0.286,0.316,0.259,0.23,0.532,0.512,0.397,0.308,0.256
NCI-H727,1.04,1.19,0.856,0.808,0.787,0.384,0.368,0.35,0.237,0.238,0.602,0.601,0.974,0.464,0.617,0.38,0.323,0.365,0.351,0.394
NCI-H838,0.719,0.766,0.363,0.413,0.324,0.559,0.458,0.377,0.247,0.26,0.748,0.652,0.629,,0.431,0.518,0.466,0.236,0.204,0.166
NCI-H1355,0.75,0.651,0.45,0.433,0.231,0.619,0.404,0.327,0.196,0.206,0.501,0.458,0.454,0.299,0.244,0.446,0.398,0.402,0.331,0.244
NCI-H1395,0.873,0.691,0.616,0.375,0.408,0.592,0.589,0.555,0.346,0.348,0.473,0.426,0.437,0.341,0.396,1.07,1.04,1.01,0.453,0.388
NCI-H1437,0.842,0.81,0.432,0.251,0.263,0.492,0.381,0.442,0.153,0.185,0.353,0.315,,0.288,0.273,0.538,0.486,0.325,0.194,0.191
NCI-H1650,0.541,0.724,0.377,0.199,0.193,0.722,0.484,0.434,0.166,0.191,0.409,0.275,0.191,0.33,0.148,0.568,0.558,0.479,0.131,0.254
NCI-H1651,0.583,0.602,0.504,0.299,0.168,0.663,0.461,0.34,0.068,0.0829,0.322,0.26,,0.251,0.132,0.803,0.729,0.729,0.877,0.238
NCI-H1666,1.03,1.01,0.805,0.908,0.832,0.308,0.434,0.295,0.176,0.201,0.542,0.551,0.505,0.548,0.507,0.738,0.849,0.719,0.872,0.523
NCI-H1734,0.879,0.781,0.454,0.301,0.102,0.495,0.51,0.339,0.209,0.143,0.411,0.376,0.374,0.306,0.218,0.713,0.703,0.483,0.366,0.209
NCI-H1755,0.829,0.781,0.59,0.408,0.225,0.562,0.422,0.335,0.232,0.22,0.603,0.637,0.615,0.56,0.493,0.858,0.796,0.694,0.665,0.228
NCI-H1793,0.698,0.949,0.461,0.262,0.287,0.357,0.319,0.235,0.172,0.206,0.388,0.392,0.433,,0.289,0.346,0.442,0.283,0.211,0.169
NCI-H1915,0.496,0.509,0.339,0.334,0.115,0.68,1.02,0.671,0.33,0.199,0.375,0.364,0.376,0.32,0.31,0.321,0.309,0.324,0.249,0.12
NCI-H1944,0.496,0.575,0.384,0.251,0.148,0.351,0.341,,0.234,0.151,0.228,0.193,0.181,0.159,0.122,0.399,0.391,0.388,0.39,0.167
NCI-H1975,0.723,0.685,0.493,0.209,0.248,0.329,0.316,0.26,0.155,0.137,0.44,0.401,0.377,0.415,0.2,0.4,0.379,0.271,0.159,0.138
NCI-H1993,0.75,0.696,0.582,0.313,0.498,0.773,0.783,0.706,0.617,0.662,0.478,0.476,0.457,0.452,0.416,0.53,0.353,0.557,0.507,0.401
NCI-H2009,0.705,0.784,0.544,0.253,0.113,1,0.844,0.618,0.114,0.0666,0.501,0.441,0.24,0.472,0.282,0.312,0.298,0.249,0.129,0.154
NCI-H2023,0.7,0.738,0.464,0.127,0.104,0.301,0.255,0.202,0.0996,0.0899,0.374,0.335,0.194,0.294,0.0701,0.473,0.504,0.366,0.0709,0.115
NCI-H2085,0.825,0.902,0.617,0.376,0.362,0.404,0.422,0.424,0.309,0.303,0.768,0.691,0.704,0.658,0.587,0.559,0.477,0.471,0.25,0.27
